According to patent US11752169B2, “Treatment of pain with polysulfated polysaccharides” (PARADIGM BIOPHARMACEUTICALS LTD., priority 2018, dated 2023):

Test system: NGF mRNA
Assay: real-time RT-PCR for NGF mRNA in osteocyte-like cultures
Format: cell-based, human
Protocol: (§1) FIG. 23. Effects of combinations of rhTNF and PPS on NGF gene expression in osteocyte-like cultures. Human differentiated osteocyte-like cultures were either untreated or pretreated with PPS (0.1 or 1.0 μg/mL) for 24 h, then with or without rhTNFα (1 ng/mL) for a further 48 h, and then real-time RT-PCR was performed for NGF mRNA. Data are mean+SD of triplicate real-time RT-PCR reactions normalised to the mRNA expression of the housekeeping gene ACTB.
as §1, with “28.” for “23.”
Cryopreserved cells from each donor (all at passage 0 or 1) were thawed and cultured for 10d in T75 cm^2 tissue culture flasks. Once confluent, cells were removed by collagenase/dispase digestion, washed by centrifugation, counted and adjusted to 5×10^5 cells/mL. Cells were then seeded into either 12-well tissue culture trays or into 8-well chamber slides, at 1×10^5 and 2×10^4 cells/well, respectively. After 24 h, media were replaced with osteogenic differentiation medium, consisting of αMEM, 5% v/v foetal calf serum (FCS), 1.8 mM potassium dihydrogen phosphate (KH2PO4), 100 μM Ascorbate-2-phosphate (As2P), 10 mM HEPES, 10^−8 M Dexamethasone and 0.2 mM L-Glutamine. During the differentiation process, samples were collected at days 3, 14 and 28 in Trizol reagent for total RNA preparation and gene expression analysis (see below). Cultures seeded into chamber slides were examined for in vitro mineralisation using the Alizarin Red staining technique, as previously described.
PPS was manufactured by bene pharmaChem GmbH & Co. KG, Geretstried, Germany. This was dissolved in sterile PBS as a stock solution at 1.0 mg/mL. Differentiated cells were either untreated or pre-treated with final concentrations of PPS at 1, 5 or 50 μg/mL in culture medium for 72 h. The tested doses of PPS were based on the effective and maximally active levels published in a previous study. Media were then replaced with the same concentrations of PPS with or without the addition of recombinant human (rh) TNFα (1 ng/mL) and then cultured for a further 48 h. Culture supernatants were collected and total RNA and cDNA prepared, as described below. This generated 8 conditions (Untreated, TNF, PPS1, PPS5, PPS50, TNF+PPS1, TNF+PPS5, TNF+PPS50) from 6 donors.
Total RNA was prepared from Trizol lysates, according to the manufacturer's instructions, with the exception that due to evidence for PPS interference in the generation of assayable cDNA, RNA precipitates were washed 3 times in 75% ethanol instead of the usual single wash step, in an attempt to remove residual PPS. RNA preparations were tested for yield and purity using a Nanodrop microvolume spectrophotometer (Thermo Fisher). One microgram of RNA from each sample was reverse transcribed using a Superscript™ II kit (Thermo Fisher), as per manufacturer's instructions. Real-time RT-PCR was performed for genes including Nerve Growth Factor (NGF), its receptors NTRK1 (TRKA) and NGFR (P75NTR), MMP13, Cyclooxygenase-2 (COX-2), Interleukin-6 (IL-6) RANKL, OPG, OCN, DMP1 and SOST, relative to housekeeping gene (18S, ACTB) expression. […]

Q: For Sodium Pentosan Polysulfate [PPS], which “NGF mRNA levels, PPS in combination with rhTNFα” value (KOA1 and KOA2 cultures, PPS 1 μg/mL + rhTNFα 1 ng/mL, 48 h, relative to 18S rRNA (FIG. 16)) is on record?
A: The value was “strongly suppressed”.

Q: And the “NGF mRNA levels, PPS alone” value (KOA1 and KOA2 cultures, PPS 1 μg/mL, 72 h pre-treatment + 48 h, relative to 18S rRNA (FIG. 16))?
A: The value was “strongly suppressed”.

Q: What about the “NGF expression (mRNA) in the presence of TNFα” value (PPS at 1 μg/mL, 24 h pre-treatment, rhTNFα 1 ng/mL 48 h, normalised to ACTB (FIG. 23)) of the same substance?
A: The value was “significantly reduced”.

Q: What about the “NGF expression (mRNA) in the presence of TNFα” value (PPS at 1 mg/mL (so in the source), FIG. 28, normalised to ACTB) of the same substance?
A: Its value is “significantly reduced”.

Q: What about the “basal NGF mRNA levels” value (PPS at both 0.1 and 1 μg/mL, 24 h pre-treatment + 48 h, normalised to ACTB (FIG. 23)) of the same substance?
A: Its value is “no apparent effect”.
